One block for each molecule: values may come before it.
What was measured:
[1] = organism: Cavia porcellus; assay: Inhibition of Hartley guinea pig PDE4 assessed as hydrolization of cAMP by measuring [3H]cAMP at 100 nM by radioisotope method
[2] = Inhibition of Hartley guinea pig PDE4 assessed as hydrolization by radioisotope method; set-up: species or system Cavia porcellus
[3] = Drug level in ovalbumin-sensitized guinea pig plasma treated with [14C]-2-(3-chlorophenoxy)-3-[3-(3-hydroxypyridin-4-yl)propoxy]pyridine at 10 mg/kg, po after 0.5 hrs; assay type: ADME, organism-based, Cavia porcellus; set-up: dose 10 mg/kg, route oral; conditions: in vivo
[4] = Drug level in ovalbumin-sensitized guinea pig plasma treated with [14C]-2-(3-chlorophenoxy)-3-[3-(3-hydroxypyridin-4-yl)propoxy]pyridine at 10 mg/kg, po after 2 hrs; assay type: ADME, organism-based, Cavia porcellus; set-up: dose 10 mg/kg, route oral; conditions: in vivo
[5] = Drug level in ovalbumin-sensitized guinea pig plasma treated with [14C]-2-(3-chlorophenoxy)-3-[3-(3-hydroxypyridin-4-yl)propoxy]pyridine at 10 mg/kg, po after 4 hrs; assay type: ADME, organism-based, Cavia porcellus; set-up: dose 10 mg/kg, route oral; conditions: in vivo
[6] = Drug level in ovalbumin-sensitized guinea pig lung treated with [14C]-2-(3-chlorophenoxy)-3-[3-(3-hydroxypyridin-4-yl)propoxy]pyridine at 10 mg/kg, po after 0.5 hrs; assay type: ADME, organism-based, Cavia porcellus; set-up: dose 10 mg/kg, route oral; conditions: in vivo
[7] = Drug level in ovalbumin-sensitized guinea pig lung treated with [14C]-2-(3-chlorophenoxy)-3-[3-(3-hydroxypyridin-4-yl)propoxy]pyridine at 10 mg/kg, po after 2 hrs; assay type: ADME, organism-based, Cavia porcellus; set-up: dose 10 mg/kg, route oral; conditions: in vivo
[8] = Drug level in ovalbumin-sensitized guinea pig lung treated with [14C]-2-(3-chlorophenoxy)-3-[3-(3-hydroxypyridin-4-yl)propoxy]pyridine at 10 mg/kg, po after 4 hrs; assay type: ADME, organism-based, Cavia porcellus; set-up: dose 10 mg/kg, route oral; conditions: in vivo
[9] = Drug level in ovalbumin-sensitized guinea pig trachea treated with [14C]-2-(3-chlorophenoxy)-3-[3-(3-hydroxypyridin-4-yl)propoxy]pyridine at 10 mg/kg, po after 0.5 hrs; assay type: ADME, organism-based, Cavia porcellus; set-up: dose 10 mg/kg, route oral; conditions: in vivo
[10] = Drug level in ovalbumin-sensitized guinea pig trachea treated with [14C]-2-(3-chlorophenoxy)-3-[3-(3-hydroxypyridin-4-yl)propoxy]pyridine at 10 mg/kg, po after 2 hrs; assay type: ADME, organism-based, Cavia porcellus; set-up: dose 10 mg/kg, route oral; conditions: in vivo
[11] = Drug level in ovalbumin-sensitized guinea pig trachea treated with [14C]-2-(3-chlorophenoxy)-3-[3-(3-hydroxypyridin-4-yl)propoxy]pyridine at 10 mg/kg, po after 4 hrs; assay type: ADME, organism-based, Cavia porcellus; set-up: dose 10 mg/kg, route oral; conditions: in vivo
[12] = system: Cavia porcellus; assay: Induction of bronchodilation in ovalbumin-sensitized guinea pig at 10 mg/kg, po administered 1 hr prior to ovalbumin challenge measured for 20 mins relative to vehicle-treated control; assay type: functional
[13] = system: Mus musculus; assay: Inhibition of eosinophil infiltration in ovalbumin-sensitized mouse at 10 mg/kg, po qd for 2 days administered 30 mins prior to ovalbumin challenge relative to vehicle-treated control; assay type: functional
[14] = system: Mustela putorius furo; assay: Toxicity in Marshall ferret assessed as vomiting at 30 mg/kg, po after 2 hrs; assay type: organism-based; set-up: dose 30 mg/kg, route oral; conditions: in vivo
[15] = system: Cavia porcellus; assay: Induction of bronchodilation in ovalbumin-sensitized guinea pig at 10 mg/kg, po administered 4 hrs prior to ovalbumin challenge measured for 20 mins relative to vehicle-treated control; assay type: functional
[16] = target: Phosphodiesterase 4 (Homo sapiens, UniProt P27815+Q08499+Q07343+Q08493); assay: Inhibition of human PDE4; assay type: protein assay
[17] = Inhibition of bovine PDE3; set-up: species or system Bos taurus
[18] = organism: Cavia porcellus; assay: Inhibition of immediate asthmatic response in ovalbumin-sensitized guinea pig; assay type: functional
[19] = organism: Cavia porcellus; assay: Inhibition of late asthmatic response in ovalbumin-sensitized guinea pig; assay type: functional
[20] = system: Mustela putorius furo; assay: Toxicity in Marshall ferret assessed as vomiting at 10 mg/kg, po after 2 hrs; assay type: organism-based; set-up: dose 10 mg/kg, route oral; conditions: in vivo
[21] = system: Mustela putorius furo; assay: Toxicity in Marshall ferret assessed as vomiting at 300 mg/kg, po after 2 hrs; assay type: organism-based; set-up: dose 300 mg/kg, route oral; conditions: in vivo
[22] = Drug level in ovalbumin-sensitized guinea pig plasma assessed as radioactivity at 10 mg/kg, po after 0.5 hrs; assay type: ADME, organism-based, Cavia porcellus; set-up: dose 10 mg/kg, route oral; conditions: in vivo
[23] = Drug level in ovalbumin-sensitized guinea pig plasma assessed as radioactivity at 10 mg/kg, po after 2 hrs; assay type: ADME, organism-based, Cavia porcellus; set-up: dose 10 mg/kg, route oral; conditions: in vivo
[24] = Drug level in ovalbumin-sensitized guinea pig plasma assessed as radioactivity at 10 mg/kg, po after 4 hrs; assay type: ADME, organism-based, Cavia porcellus; set-up: dose 10 mg/kg, route oral; conditions: in vivo
[25] = Drug level in ovalbumin-sensitized guinea pig lung assessed as radioactivity at 10 mg/kg, po after 0.5 hrs; assay type: ADME, organism-based, Cavia porcellus; set-up: dose 10 mg/kg, route oral; conditions: in vivo
[26] = Drug level in ovalbumin-sensitized guinea pig lung assessed as radioactivity at 10 mg/kg, po after 2 hrs; assay type: ADME, organism-based, Cavia porcellus; set-up: dose 10 mg/kg, route oral; conditions: in vivo
[27] = Drug level in ovalbumin-sensitized guinea pig lung assessed as radioactivity at 10 mg/kg, po after 4 hrs; assay type: ADME, organism-based, Cavia porcellus; set-up: dose 10 mg/kg, route oral; conditions: in vivo
[28] = Drug level in ovalbumin-sensitized guinea pig trachea assessed as radioactivity at 10 mg/kg, po after 0.5 hrs; assay type: ADME, organism-based, Cavia porcellus; set-up: dose 10 mg/kg, route oral; conditions: in vivo
[29] = Drug level in ovalbumin-sensitized guinea pig trachea assessed as radioactivity at 10 mg/kg, po after 2 hrs; assay type: ADME, organism-based, Cavia porcellus; set-up: dose 10 mg/kg, route oral; conditions: in vivo
[30] = Drug level in ovalbumin-sensitized guinea pig trachea assessed as radioactivity at 10 mg/kg, po after 4 hrs; assay type: ADME, organism-based, Cavia porcellus; set-up: dose 10 mg/kg, route oral; conditions: in vivo
[31] = Drug level in ovalbumin-sensitized guinea pig brain assessed as radioactivity at 10 mg/kg, po after 0.5 hrs; assay type: ADME, organism-based, Cavia porcellus; set-up: dose 10 mg/kg, route oral; conditions: in vivo
[32] = Drug level in ovalbumin-sensitized guinea pig brain assessed as radioactivity at 10 mg/kg, po after 2 hrs; assay type: ADME, organism-based, Cavia porcellus; set-up: dose 10 mg/kg, route oral; conditions: in vivo
[33] = Drug level in ovalbumin-sensitized guinea pig brain assessed as radioactivity at 10 mg/kg, po after 4 hrs; assay type: ADME, organism-based, Cavia porcellus; set-up: dose 10 mg/kg, route oral; conditions: in vivo
[34] = system: Mustela putorius furo; assay: Toxicity in Marshall ferret assessed as vomiting at 1 mg/kg, po after 2 hrs; assay type: organism-based; set-up: dose 1 mg/kg, route oral; conditions: in vivo
[35] = system: Mustela putorius furo; assay: Toxicity in po dosed Marshall ferret assessed as vomiting; assay type: organism-based; conditions: in vivo

inhibition [1]: 87%
Structure (SMILES): Oc1cnccc1CCCOc1cccnc1Cc1cccc(Br)c1
Activity [12]: 13%
inhibition in vivo at 10 mg/kg [13]: 44%

inhibition [1]: 77%
Structure (SMILES): Oc1cnccc1CCCOc1cccnc1Oc1cccc(Br)c1
Activity [12]: 70%
inhibition in vivo at 10 mg/kg [13]: 50%
Activity [14]: Non-toxic
Activity [15]: 12%

inhibition [1]: 74%
Structure (SMILES): Oc1cnccc1CCCOc1cccnc1Oc1cccc(F)c1
Activity [12]: 55%
Activity [15]: 9%

inhibition [1]: 46%
Structure (SMILES): Oc1cnccc1CCCOc1cccnc1Oc1ccc(Cl)cc1

inhibition [1]: 75%
IC50 [16]: 33 nM
IC50 [2]: 38 nM
IC50 [17]: > 30000 nM
Structure (SMILES): Oc1cnccc1CCCOc1cccnc1Oc1cccc(Cl)c1
Activity [12]: 55%
Activity [14]: Non-toxic
Activity [15]: 45%
inhibition (INH) [18]: 45%
inhibition (INH) [19]: 40%
Activity [20]: Non-toxic
Activity [21]: Non-toxic
Cp [22]: 387.6 ngequiv/ml
Cp [23]: 452.8 ngequiv/ml
Cp [24]: 346.2 ngequiv/ml
Cp [3]: 1.7 ngequiv/ml
Drug uptake [25]: 251.2 ngequiv/g
Drug uptake [26]: 232.9 ngequiv/g
Drug uptake [27]: 178.7 ngequiv/g
Drug uptake [6]: 21 ngequiv/g
Drug uptake [7]: 12.8 ngequiv/g
Drug uptake [8]: 7.7 ngequiv/g
Drug uptake [28]: 142.1 ngequiv/g
Drug uptake [29]: 85.1 ngequiv/g
Drug uptake [30]: 90.1 ngequiv/g
Drug uptake [9]: 14.4 ngequiv/g
Drug uptake [31]: 31.9 ngequiv/g
Drug uptake [32]: 17.7 ngequiv/g
Drug uptake [33]: 14.5 ngequiv/g

inhibition [1]: 66%
Structure (SMILES): Oc1cnccc1CCCOc1cccnc1Sc1cccc(Br)c1
Activity [12]: 8%
inhibition in vivo at 10 mg/kg [13]: 33%

The remaining lines, values behind:

Structure (SMILES): Oc1cnccc1CCCOc1cccnc1Oc1ccccc1Cl
inhibition [1]: 30%

Structure (SMILES): O=S(=O)(O)Oc1cnccc1CCCOc1cccnc1Oc1cccc(Cl)c1
IC50 [2]: 837 nM
Cp [3]: 43.8 ngequiv/ml
Cp [4]: 219.2 ngequiv/ml
Cp [5]: 194.4 ngequiv/ml
Drug uptake [6]: 29.2 ngequiv/g
Drug uptake [7]: 78.9 ngequiv/g
Drug uptake [8]: 79.9 ngequiv/g
Drug uptake [9]: 17.2 ngequiv/g
Drug uptake [10]: 34.4 ngequiv/g
Drug uptake [11]: 44 ngequiv/g

Structure (SMILES): O=C(c1cccc(Br)c1)c1ncccc1OCCCc1ccncc1
inhibition [1]: 27%

Structure (SMILES): Oc1cnccc1CCCOc1cccnc1Oc1cc(Cl)cc(Cl)c1
inhibition [1]: 6%

Structure (SMILES): O=C(O)[C@H]1O[C@@H](Oc2cnccc2CCCOc2cccnc2Oc2cccc(Cl)c2)[C@H](O)[C@@H](O)[C@@H]1O
IC50 [2]: 11500 nM
Cp [3]: 130.4 ngequiv/ml
Cp [4]: 130.8 ngequiv/ml
Cp [5]: 79.3 ngequiv/ml
Drug uptake [6]: 46.5 ngequiv/g
Drug uptake [7]: 59.5 ngequiv/g
Drug uptake [8]: 33.8 ngequiv/g
Drug uptake [9]: 53.6 ngequiv/g
Drug uptake [10]: 33.7 ngequiv/g
Drug uptake [11]: 28.1 ngequiv/g

Structure (SMILES): Brc1cccc(Cc2ncccc2OCCCc2ccncc2)c1
inhibition [1]: 89%
Activity [12]: 63%
inhibition in vivo at 10 mg/kg [13]: 43%

Structure (SMILES): Brc1cccc(Oc2ncccc2OCCCc2ccncc2)c1
inhibition [1]: 80%
Activity [12]: 49%
inhibition in vivo at 10 mg/kg [13]: 23%

Structure (SMILES): COc1ccc(C2CNC(=O)C2)cc1OC1CCCC1 (centres undefined) [ROLIPRAM]
inhibition [1]: 54%
Activity [12]: 50%
Activity [15]: 13%
Activity [34]: Non-toxic
Activity [20]: Toxic
Activity [35]: Dose-dependent effect

Structure (SMILES): Brc1cccc(Sc2ncccc2OCCCc2ccncc2)c1
inhibition [1]: 80%
Activity [12]: 77%
inhibition in vivo at 10 mg/kg [13]: 50%
Activity [14]: Toxic
Activity [35]: Dose-dependent effect

Structure (SMILES): Brc1cccc(Nc2ncccc2OCCCc2ccncc2)c1
inhibition [1]: 51%
